Experimental data: a melting point compilation (Tetko et al.; mined from patent text by program, amines drawn as free bases though some values may be those of a salt)

melting point [°C]	Structure (SMILES)
124 to 127	CC(C)C(C(=O)O)c1ccc([N+](=O)[O-])cc1 (stereo not drawn)
186 to 187	Cc1oc(-c2ccccc2)nc1COc1ccc(Cn2cc(/C=C/C(=O)O)cn2)cc1
199 to 200	CC(C)c1ccc(OC(Cc2ccc(OCCNC(=O)c3ccc(-c4ccc(F)cc4)nc3)cc2)C(=O)O)cc1 (stereo not drawn)
147 to 149	CCOCc1nc2c(N)nc(C)c(C)c2n1NCc1cccnc1
192	CCOc1cc2c(cc1S(N)(=O)=O)C(CNC(=O)N1CC(C)=C(CC)C1=O)CCO2 (stereo not drawn)
84 to 86	CC1(C)Oc2ccc(C(=O)CCl)cc2S1
188 to 189	Oc1cc2c(nn1)CCCCCCCCCC2
143	O=C(NC1CCCC1)c1ccc(S(=O)(=O)Cl)cc1
123 to 124	CC12CCCc3cc(N(CC4CC4)c4ncc(C(=O)O)cn4)cc(c31)CCC2
184 to 185	CC(C)c1ccc2c(c1)c(-c1ccccc1Cl)c(C(=O)O)c(=O)n2C
106 to 109	Cc1cccc(C)c1N(CC(C)Cl)C(=O)c1ccccc1 (stereo not drawn)
112 to 113	CCCSc1sc(C(N)=O)c2c1-c1c(cnn1C)CC2
146 to 147	O=C(O)Cc1ccc2c(c1)CC(CCNS(=O)(=O)c1ccc(Cl)cc1)C2 (stereo not drawn)
214 to 215	CCc1[nH]c2ccc(OC)cc2c1/C=C/C(=O)c1ccncc1
123	CCNc1ccc(S(=O)(=O)Nc2onc(C)c2C)cc1
119 to 120	CCOC(=O)c1cccc(-c2ccc(Cl)c3cc(CO)sc23)c1
49 to 51	CCCOC(=O)C(C)Oc1ccc(Oc2cnc3cc(F)ccc3n2)cc1F (stereo not drawn)
41 to 42	C#CC(CC(=O)OC)c1ccc(OC)c(OC2CCCC2)c1 (racemic)
139 to 141	Nc1ccc(OCc2ccccc2)cc1[N+](=O)[O-]
183 to 185	O=C(Nc1ccc(CCCCn2ccnn2)cc1)c1coc(C=Cc2ccc(C(F)(F)F)cc2)n1
173 to 174	CN(C)CCOc1ccc(Nc2ncc3c(n2)N(C)C(=O)N(c2c(Cl)cccc2Cl)C3)cc1
115 to 117	O=S(=O)(c1ccccc1)N1CCC(C(NCCc2ccccc2)c2ccc(F)cc2)CC1 (stereo not drawn)
42 to 43	CCCc1cc2c(c(Br)c1O)CCO2
186	CCc1ccc(-c2oc3cccc4c3c2C=CC4=O)cc1

melting point [°C]	Structure (SMILES)
65.4 to 66.1	CCOc1ccc(Br)c(F)c1Cl
237 to 241	COc1ccc(C2Sc3cc(Cl)ccc3NC(=O)C2O)cc1 (stereo not drawn)
144	COc1cc2c(cc1OC)C(=C(C#N)SCC(CN1CCOCC1)OC(=O)c1ccccc1)NCC2 (stereo not drawn)
192 to 195	O=c1[nH]c(=S)[nH]cc1Cc1cccc(Cl)c1
120 to 122	COCN1C(=O)COc2ccc([N+](=O)[O-])cc21
138 to 140	COCc1nc(C(C)(C)O)c(C(=O)OCc2oc(=O)oc2C)n1Cc1ccc(-c2ccccc2-c2nnn[nH]2)cc1
179 to 182	CCOC(=O)C1OC(n2cnc3c(N)ncnc32)C(O)C1N (stereo not drawn)
302 to 304	Oc1cccc(-c2n[nH]c3c2Cc2ccccc2-3)c1
182	CCCCc1nc(=O)c2cc(-c3nnn(C(c4ccccc4)(c4ccccc4)c4ccccc4)n3)ccc2[nH]1
236	COC(=O)c1c(N)c2ccccc2[nH]c1=O
93.1 to 93.7	O=C(Nc1cccc(C(F)(F)F)c1)c1cccc(Oc2cccc(C(F)(F)F)c2)n1
254 to 255	O=C(Nc1ccn2cc(CO)nc2c1)c1cc2cc(C(F)(F)F)ccc2n1Cc1cccc(F)c1
198 to 200	COc1ccc(-c2c(Cl)c(Cn3cncn3)nc3sc4c(c23)CCSC4)cc1
109 to 110	CCOC(Cc1ccc(NCc2ccc(O)cc2)cc1)C(=O)OC (stereo not drawn)
115 to 116	CCCc1c(OCCCSc2c(F)cccc2C(=O)CCC(=O)O)ccc(C(C)=O)c1O
117 to 119	CCCc1c(OCCCCCC(=O)c2ccc(OC)c(OC)c2)ccc(C(=O)OC)c1O
145 to 148	Cc1ccc2c(c1)/C(=N\NC(N)=O)C(=O)N2CCCN(C(C)C)C(C)C
177 to 178	CC(C)c1cccc(C(C)C)c1-n1nn[nH]c1=O
153 to 156	Cn1c(/C=C/[N+](=O)[O-])cc2cccc(F)c21
94 to 96	COc1cccc2c1CC1(CCCCC1)C2=O
60 to 61.5	COc1ccc(C(=O)CC2CCCC2)c(Cl)c1Cl
271 to 277	CN1C(=O)NC(=O)C1=Cc1cc(Br)c(O)c(Br)c1
73 to 75	Cc1sc(C#N)c2c1C(=O)CC(C)(C)C2
193 to 194	O=C(O)c1ccc(C(=O)N(Cc2ccccc2)S(=O)(=O)c2ccc(Br)cc2)cc1

melting point [°C]	Structure (SMILES)
275 to 277	O=C(c1ccccc1)N1CCc2c(c(=O)[nH]c3ccccc23)C1
113 to 118	CSC1=NC=C(I)C(c2nnn(C)n2)(C(F)(F)F)N1 (stereo not drawn)
146 to 147	CCOC(=O)c1cc(OCc2ccccc2)c2c(Cl)cc(Cl)cc2n1
189 to 191	CC1(C)Cc2c(N)c(Cl)cc(C(=O)NCCC34CCCN3CCC4)c2O1
219 to 221	CC(N(C(=O)c1ccc(C(F)(F)F)cc1)[C@H](C)C(=O)O)[C@](O)(Cn1cncn1)c1ccc(F)cc1F (mixture of isomers)
178 to 180	CSc1c(C#N)nn(-c2c(Cl)cc(C(F)(F)F)cc2Br)c1N
102 to 103	COCC1OC(OC(C)=O)C(OC(C)=O)C(OC(C)=O)C1OC(C)=O (stereo not drawn)
123 to 125	CCOC(=O)c1cc2cc(CCNS(=O)(=O)c3ccc(Cl)cc3)ccc2o1
221 to 225	O=C1OCCn2c1cc(=O)c(O)c2C(O)c1ccc(F)cc1 (stereo not drawn)
106 to 115	CC(C)(C)OC(=O)Nc1cnc(F)cc1C(=O)CC#N
106 to 107	COc1cccc(N2CCN(c3c(C)c(C)c4c(c3C)C(N3CCCC3)C(C)(C)O4)CC2)c1 (stereo not drawn)
90	CCCCCCCCOc1cnc(-c2ccc(OC(=O)[C@H]3CCCO3)cc2)nc1
149 to 159	O=C(O)c1nn(-c2c(Cl)cc(C(F)(F)F)cc2Cl)cc1OC(F)(F)C(F)Cl (racemic)
87 to 90	O=C(COc1cc(F)ccc1C(=O)NCc1cccc([N+](=O)[O-])c1)OC1CCCCC1
80 to 81	CC(=O)c1ccc(OCCCc2ccccc2)cc1
70	Cc1c(-c2ccccc2)nc(C(F)(F)F)oc1=O
103 to 105	C=CCOc1nc(SC)nc(N2CCc3ccccc3CC2)c1C#N
256 to 259	COc1ccc(C(=O)Nc2ccc(C(=O)O)c3ccccc23)cc1OC
262 to 264	COc1ccc(-c2ccc3[nH]c(=O)ccc3c2)cc1
275	O=S(=O)(Nc1ncnc(Cl)c1-c1ccc(Cl)cc1)c1ccc(C(F)(F)F)cc1
145 to 147	O=C1C(=O)c2ccccc2C2=C1SCC1(CCN(CCCCc3ccccc3)CC1)O2
216 to 218	O=C1c2ccccc2C2(O)Oc3c(ccc4ccccc34)C12O (stereo not drawn)
64	O=S(=O)(Cl)c1cncc(Br)c1
206 to 209	O=C1Cc2c(cc3ccccc3c2Cl)C(c2ccccc2F)N1 (stereo not drawn)

Structure (SMILES)	melting point [°C]
CCCCC[C@@H](C)C[C@H](CN)CC(=O)O	174 to 175
